Assay results: patent publication US5002753A, “Specific ligands for estrogen and progestagen steroid hormone receptors, application and intermediate synthesis products” (IRE-Celltarg S.A., priority 1988, dated 1991)
Read-outs that look alike come from different tables or passages of the source.

What was measured:
[1] = system: MXT syngenetic mammary tumors; assay: Targeted radiotherapy of female BDF1 mice grafted with MXT syngenetic mammary tumors; type: in vivo
Description: (§1) Twenty nine female BDF1 mice were grafted with MXT syngenetic mammary tumors implanted subcutaneously. Fourteen mice received three intravenous injections of 100 μCi of 11beta-chloromethyl-17-iodovinyl- ^123 I of E isomerism at fortnightly intervals.
(§2) The 100 μCi of labeled hormone were injected diluted in 200 μl of solution containing 9 g/l NaCl, 5% ethanol and 1% of Tween 80. The fifteen control mice received 200 μl of the NaCl/ethanol/Tween solution on the same dates.

[2] = Acute toxicity in mice grafted with MXT mammary tumors; type: in vivo, female BDF1 mice; conditions: three i.v. injections of 100 μCi at fortnightly intervals, period of 60 days
Description: as §1, §2

estrogen receptors = target: T1, estrogen receptors (Homo sapiens, UniProt P03372); assay: Inhibition of the fixation of tritiated estradiol on cytosols of MCF7 mammary human tumor; type: binding; conditions: 25° C, MCF7 cytosol
T1 construct: cytosols of MCF7 mammary human tumor rich in estrogen receptors; endogenous in cells; host or cells: MCF7 human mammary tumor, cytosol
T1 sequence (P03372 1-595): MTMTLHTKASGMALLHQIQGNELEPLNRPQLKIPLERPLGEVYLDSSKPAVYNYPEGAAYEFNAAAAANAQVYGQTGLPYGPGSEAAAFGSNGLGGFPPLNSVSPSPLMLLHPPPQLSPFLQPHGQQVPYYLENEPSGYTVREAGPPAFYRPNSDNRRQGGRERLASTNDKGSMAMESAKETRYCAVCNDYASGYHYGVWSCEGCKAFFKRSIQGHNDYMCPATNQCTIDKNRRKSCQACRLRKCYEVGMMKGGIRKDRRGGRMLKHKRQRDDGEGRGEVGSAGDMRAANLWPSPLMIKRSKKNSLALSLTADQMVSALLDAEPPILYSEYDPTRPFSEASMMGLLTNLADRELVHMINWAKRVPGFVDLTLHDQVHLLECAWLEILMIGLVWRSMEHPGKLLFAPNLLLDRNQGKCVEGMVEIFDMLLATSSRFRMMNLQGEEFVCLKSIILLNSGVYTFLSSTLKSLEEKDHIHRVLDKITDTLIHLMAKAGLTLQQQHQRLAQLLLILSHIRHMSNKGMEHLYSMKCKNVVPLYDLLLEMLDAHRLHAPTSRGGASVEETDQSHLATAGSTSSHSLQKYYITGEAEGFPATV

[3] = Hydrophobicity index based on retention time in reverse phase HPLC; type: physicochemical; parameters: retention time (hydrophobicity index): dose or concentration left out as unconfirmed; conditions: for retention time (hydrophobicity index): HPLC reverse phase, microBondapack C18, 1 ml/min of ethanol in H2O
[4] = rat, in vivo, 1440 min; cited from earlier work
estrogen receptor = target: T2, estrogen receptor (Bos taurus, UniProt P49884); assay: Tests of binding of calf uterus cytosol to the estrogen receptor
T2 sequence (P49884 1-596): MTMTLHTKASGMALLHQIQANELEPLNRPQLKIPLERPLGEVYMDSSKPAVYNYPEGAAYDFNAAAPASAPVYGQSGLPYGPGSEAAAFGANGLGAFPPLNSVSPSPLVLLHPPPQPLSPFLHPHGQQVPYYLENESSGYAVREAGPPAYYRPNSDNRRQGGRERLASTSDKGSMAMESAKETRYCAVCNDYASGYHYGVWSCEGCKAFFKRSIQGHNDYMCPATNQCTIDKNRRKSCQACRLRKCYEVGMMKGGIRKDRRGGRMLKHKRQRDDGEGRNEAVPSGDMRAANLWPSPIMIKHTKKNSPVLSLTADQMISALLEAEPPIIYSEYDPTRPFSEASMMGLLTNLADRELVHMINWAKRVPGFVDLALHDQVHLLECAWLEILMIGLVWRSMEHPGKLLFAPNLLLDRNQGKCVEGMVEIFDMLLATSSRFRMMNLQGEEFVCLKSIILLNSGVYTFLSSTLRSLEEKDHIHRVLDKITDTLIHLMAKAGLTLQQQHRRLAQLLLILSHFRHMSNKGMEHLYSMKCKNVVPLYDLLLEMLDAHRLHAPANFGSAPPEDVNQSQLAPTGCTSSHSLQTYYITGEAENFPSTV
Source text: The nonspecific binding to the transport proteins is diminished by virtue of the presence of the 11-beta and 17-alpha groups.

[5] = Biodistribution of 125I-labeled Z isomer (16') in ovarectomized BDF1 mice; type: in vivo; conditions: for tissue uptake at 2 h / tissue uptake at 24 h: mouse, 1 uCi, 1 μCi 125I, ± S.D.
Description: The biodistribution of the Z isomer (16') in ovarectomized BDF mice is highly favorable.
8 ovarectomized BDF1 mice were injected with 1 μCi of 11beta-chloromethyl-17alpha-(2-iodovinyl)estradiol-(^125 I). 4 mice were sacrificed 2 hours after the estradiolinjection and 4 24 hours after the injection.

[6] = Stability of the radioiodinated product in column eluate (60% ethanol) at -20° C; type: physicochemical
Description: The method is the same as for the labelling of (14').
The starting material is the derivative (15').
The HPLC separation conditions are different: the mobile phase is 60% ethanol in water, the flow rate is 1 ml/min, the final product is collected at 12 minutes. The labeled product is kept as such in the column eluate (60% ethanol). In these conditions, it is stable for at least 12 days at -20° C. (deiodination less than 2%).

[7] = blood, read-out: % injected dose/g of tissue, blood
[8] = fat, read-out: % injected dose/g of tissue, fat
[9] = kidneys, read-out: % injected dose/g of tissue, kidneys
[10] = liver, read-out: % injected dose/g of tissue, liver
[11] = muscle, read-out: % injected dose/g of tissue, muscle
[12] = spleen, read-out: % injected dose/g of tissue, spleen
[13] = uterus, read-out: % injected dose/g of tissue, uterus

For C[C@]12C[C@H](CCl)[C@@H]3c4ccc(O)cc4CC[C@H]3[C@@H]1CC[C@@]2(O)/C=C/[123I] [11beta-chloromethyl-17-iodovinyl- ^123 I of E isomerism, 11Beta-Chloromethyl-17-Iodovinylestradiol-^123 I], the “tumor growth compared with the control group, % of the average tumor growth” value ([1]; day 18, three i.v. injections of 100 μCi at fortnightly intervals) was “lower than 45%”, the “tumor growth compared with the control group (in words)” value ([1]; three i.v. injections of 100 μCi at fortnightly intervals) was “significant slowing down of the tumor growth” and the survival ([1]; versus control group) was “better survival”. For the same molecule, the acute toxicity [2] was “No acute toxicity was detected”.
For C[C@]12C[C@H](CCl)[C@@H]3c4ccc(O)cc4CC[C@H]3[C@@H]1CC[C@@]2(O)C=CI [11beta-chloromethyl-17-iodovinylestradiol], the “affinity (in words)” value (estrogen receptors) was “an affinity comparable with that of 11beta-chloromethylestradiol and clearly superior to that of estradiol” and the relative binding affinity (estrogen receptors; versus estradiol) was “greater than 1,000”.
For C[C@]12C[C@H](CCl)[C@@H]3c4ccc(O)cc4CC[C@H]3[C@@H]1CC[C@@]2(O)/C=C/I [14', (E)-11-chloromethyl-3,17β-dihydroxy-17α-(2iodovinyl)-1,3,5(10)-estratriene], the “retention time (hydrophobicity index)” value [3] was 14.3 min.
For CCC1C[C@@]2(C)[C@@H](CCC2(O)C=C[125I])[C@@H]2CCc3cc(O)ccc3[C@@H]12 (stereo partly shown) [I-125 17-iodovinyl-11-ethylestradiol, 17-iodovinyl-11-ethylestradiol], the uterus/blood ratio [4] is given as 40.4, the uterus/liver ratio [4] is given as 3.89 and the uterus/lung ratio [4] is given as 52.8.
For C[C@]12C[C@H](CCl)[C@@H]3c4ccc(O)cc4CC[C@H]3[C@@H]1CC[C@@]2(O)/C=C\I [16', (Z)-11beta-chloromethyl-3,17beta-dihydroxy17alpha-(2-iodovinyl)-1,3,5(10)-estratriene], the “binding to the estrogen receptor (in words)” value (estrogen receptor; 25° C, 1 h, final 5 mM, versus tritiated estradiol) was “binding of the same order as the tritiated estradiol”, the nonspecific binding (estrogen receptor; 25° C, 1 h, saturating dose (final 5 mM), calf uterus cytosol) was 23% and the “nonspecific binding to the transport proteins (in words)” value (estrogen receptor; versus tritiated estradiol) was “diminished”. The “sensitivity level (in words)” value (estrogen receptor; versus tritiated estradiol, by virtue of the higher specific activity) was “higher sensitivity level”, the uterus/blood concentration ratio ([5]; 2 h) was 6.16 and the uterus/fat concentration ratio ([5]; 2 h) was 2.90. For the same molecule, the uterus/liver concentration ratio ([5]; 2 h) was 1.30, the uterus/muscle concentration ratio ([5]; 2 h) was 7.48 and the uterus/blood concentration ratio ([5]; 24 h) was 65.80. It also gave a uterus/fat concentration ratio ([5]; 24 h) of 35.42, a uterus/liver concentration ratio ([5]; 24 h) of 10.12 and a uterus/muscle concentration ratio ([5]; 24 h) of 92.10. For the same molecule, the tissue uptake at 2 h [5, 7] was 1.08 ± 0.24 %ID/g, the tissue uptake at 24 h [5, 7] was 0.14 ± 0.02 %ID/g and the tissue uptake at 2 h [5, 8] was 2.29 ± 0.25 %ID/g. For the same molecule, the tissue uptake at 24 h [5, 8] was 0.26 ± 0.09 %ID/g, the tissue uptake at 2 h [5, 9] was 1.84 ± 0.27 %ID/g and the tissue uptake at 24 h [5, 9] was 0.2 ± 0.02 %ID/g. The tissue uptake at 2 h [5, 10] was 5.1 ± 0.72 %ID/g, the tissue uptake at 24 h [5, 10] was 0.91 ± 0.05 %ID/g and the tissue uptake at 2 h [5, 11] was 0.89 ± 0.07 %ID/g. For the same molecule, the tissue uptake at 24 h [5, 11] was 0.1 %ID/g, the tissue uptake at 2 h [5, 12] was 0.97 ± 0.18 %ID/g and the tissue uptake at 24 h [5, 12] was 0.12 ± 0.01 %ID/g. For the same molecule, the tissue uptake at 2 h [5, 13] was 6.66 ± 0.91 %ID/g, the tissue uptake at 24 h [5, 13] was 9.21 ± 1.44 %ID/g and the “retention time (hydrophobicity index)” value [3] was 12.1 min. For the same molecule, the “hydrophobicity, Z isomer versus E isomer (in words)” value ([3]; comparison of Z with E isomer) was “less hydrophobic than the E isomer”, the degraded at 288 h ([6]; 60% ethanol) was under 2% and the “stable for at least (storage stability of labeled product)” value ([6]; column eluate (60% ethanol), -20° C) was “at least 12 days”.
